Measurements as given in the supplement of paper PMC10307832.

Tests used:
Test in all cases: relative viability (nuclei count vs DMSO), 5 days (fraction); higher = more cells survive
Olaparib + Lapatinib = compound: O=C(c1cc(Cc2n[nH]c(=O)c3ccccc23)ccc1F)N1CCN(C(=O)C2CC2)CC1 [Olaparib] + CS(=O)(=O)CCNCc1ccc(-c2ccc3ncnc(Nc4ccc(OCc5cccc(F)c5)c(Cl)c4)c3c2)o1 [Lapatinib] (partner 2 µM)
Summary of the method: (§1)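 Values are medians from duplicate plates. Each reflects relative viability, defined as the nuclei count of treated wells over that of vehicle wells. Lung cancer cell lines in 1536-well plates were pin-tool dosed one day after seeding with one drug alone or with a fixed anchor-drug dose plus five library-drug doses (not always all listed) in √10 steps, then fixed, stained and imaged at 4× after 5 days.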

Olaparib + Foretinib = compound: O=C(c1cc(Cc2n[nH]c(=O)c3ccccc23)ccc1F)N1CCN(C(=O)C2CC2)CC1 [Olaparib] + COc1cc2c(Oc3ccc(NC(=O)C4(C(=O)Nc5ccc(F)cc5)CC4)cc3F)ccnc2cc1OCCCN1CCOCC1 [Foretinib] (partner 0.25 µM)
Summary of the method: as §1

Carfilzomib + Bortezomib = compound: CC(C)C[C@H](NC(=O)[C@H](CCc1ccccc1)NC(=O)CN1CCOCC1)C(=O)N[C@@H](Cc1ccccc1)C(=O)N[C@@H](CC(C)C)C(=O)[C@@]1(C)CO1 [Carfilzomib] + CC(C)C[C@H](NC(=O)[C@H](Cc1ccccc1)NC(=O)c1cnccn1)B(O)O [Bortezomib] (partner 0.002 µM)
Summary of the method: as §1

Crizotinib + Lapatinib = compound: C[C@@H](Oc1cc(-c2cnn(C3CCNCC3)c2)cnc1N)c1c(Cl)ccc(F)c1Cl [Crizotinib] + CS(=O)(=O)CCNCc1ccc(-c2ccc3ncnc(Nc4ccc(OCc5cccc(F)c5)c(Cl)c4)c3c2)o1 [Lapatinib] (partner 2 µM)
Summary of the method: as §1

Row | Cell Line | relative viability (Olaparib + Lapatinib; first compound 0.08 µM) | relative viability (Olaparib + Lapatinib; first compound 0.253 µM) | relative viability (Olaparib + Lapatinib; first compound 2.53 µM) | relative viability (Olaparib + Lapatinib; first compound 8 µM) | relative viability (Olaparib + Foretinib; first compound 0.08 µM) | relative viability (Olaparib + Foretinib; first compound 0.253 µM) | relative viability (Olaparib + Foretinib; first compound 2.53 µM) | relative viability (Olaparib + Foretinib; first compound 8 µM) | relative viability (Carfilzomib + Bortezomib; first compound 0.001 µM) | relative viability (Carfilzomib + Bortezomib; first compound 0.003162 µM) | relative viability (Carfilzomib + Bortezomib; first compound 0.01 µM) | relative viability (Carfilzomib + Bortezomib; first compound 0.03162 µM) | relative viability (Carfilzomib + Bortezomib; first compound 0.1 µM) | relative viability (Crizotinib + Lapatinib; first compound 0.01 µM) | relative viability (Crizotinib + Lapatinib; first compound 0.03162 µM) | relative viability (Crizotinib + Lapatinib; first compound 0.1 µM) | relative viability (Crizotinib + Lapatinib; first compound 0.3162 µM) | relative viability (Crizotinib + Lapatinib; first compound 1 µM)
1 | NCI-H1437 | 0.801 | 0.652 | 0.717 | 0.599 | 1.3 | 1.12 | 1.08 | 0.914 | 0.473 | 0.5 | 0.437 | 0.176 | 0.13 | 0.768 | 0.839 | 0.816 | 0.711 | 0.928
2 | NCI-H1563 | 0.975 | 0.999 | 0.992 | 0.92 | 0.962 | 0.92 | 1.02 | 0.935 | 0.815 | 0.985 | 0.836 | 0.513 | 0.477 | 0.88 | 0.962 | 0.936 | 0.753 | 0.789
3 | NCI-H1650 | 1.04 | 0.756 | 0.796 | 0.749 | 1.2 | 0.996 | 1.15 | 1.35 |  | 0.19 | 0.17 | 0.195 | 0.197 | 0.699 | 0.819 | 0.828 | 0.363 | 0.799
4 | NCI-H1651 | 0.712 | 0.752 | 0.628 | 0.27 | 0.828 | 0.681 | 0.544 | 0.301 | 0.895 | 0.836 | 0.647 | 0.292 | 0.134 | 0.642 | 0.782 | 0.722 | 0.893 | 0.892
5 | NCI-H1666 | 0.845 | 0.633 | 0.577 | 0.532 | 0.936 | 0.867 | 0.793 | 0.823 | 0.987 | 0.888 | 0.771 | 0.188 | 0.218 | 0.618 | 0.678 | 0.587 | 0.657 | 0.682
6 | NCI-H1703 | 1.63 | 1.03 | 1.29 | 1.04 | 0.469 | 0.328 | 0.333 | 0.364 | 0.216 | 0.167 | 0.156 | 0.0967 | 0.129 | 1.23 | 1.18 | 1.07 | 1.17 | 1.02
7 | NCI-H1734 | 1.1 | 0.974 | 0.933 | 0.749 | 0.885 | 0.782 | 0.851 | 0.637 | 0.848 | 1.1 | 0.484 | 0.147 | 0.146 | 1.03 | 1.05 | 1 |  | 1.04
8 | NCI-H1755 | 1.15 | 0.916 | 1.08 | 0.967 | 0.922 | 0.898 | 0.868 | 0.787 | 0.929 | 1.02 | 0.685 | 0.282 | 0.221 | 1 | 1.04 | 1.07 | 0.938 | 1.03
9 | NCI-H1915 | 1.05 | 0.813 | 0.778 | 0.76 | 1.06 | 1.02 | 0.717 | 0.604 | 0.906 | 0.849 | 1.03 | 0.142 | 0.0581 | 0.902 | 0.95 | 1.01 |  | 0.969
10 | NCI-H1975 | 0.999 | 0.844 | 0.808 | 0.786 | 1.04 | 0.929 | 0.98 | 0.908 | 0.255 | 0.266 | 0.137 | 0.122 | 0.13 | 0.719 | 1.01 | 0.971 | 0.798 | 0.869
11 | NCI-H1993 | 0.932 | 0.779 | 0.855 | 0.77 | 0.906 | 0.794 | 1.04 | 0.931 | 0.912 | 1.18 | 1.1 | 0.453 | 0.425 | 0.687 | 0.843 | 0.781 | 0.681 | 0.707
12 | NCI-H2009 | 0.934 | 0.975 | 0.884 | 0.606 | 1.35 | 1.16 | 1.17 | 1.06 | 1.11 | 1.26 | 0.78 | 0.122 | 0.0487 | 0.845 | 0.984 | 0.956 | 0.812 | 0.93
13 | NCI-H2023 | 1.08 | 0.755 | 0.763 | 0.691 | 0.931 | 0.733 | 0.775 | 0.733 | 0.951 | 1.07 | 1.01 | 0.184 | 0.0639 | 0.864 | 0.884 | 0.71 | 0.372 | 0.465
14 | NCI-H2085 | 0.968 | 0.711 | 0.737 | 0.618 | 1.1 | 0.831 | 0.916 | 0.886 | 1.03 | 0.923 | 0.773 | 0.451 | 0.313 | 0.724 | 0.899 | 0.785 | 0.709 | 0.715
15 | NCI-H2087 | 1.08 | 0.997 | 0.892 | 0.632 | 1.08 | 0.921 | 0.949 | 0.736 | 0.803 | 0.793 | 0.202 | 0.0909 | 0.101 | 0.936 | 1.07 | 0.915 | 0.557 | 1.06
16 | NCI-H2126 | 0.845 | 0.766 | 0.759 | 0.784 | 1.06 | 1.15 | 1.36 | 1.18 | 1.11 | 1.12 | 1.1 | 0.945 | 0.554 | 0.701 | 0.763 | 0.765 | 0.763 | 0.727
17 | NCI-H2228 | 1.28 | 0.879 | 0.835 | 0.765 | 0.884 | 0.767 | 0.805 | 0.765 | 0.94 | 0.54 | 0.257 | 0.0941 | 0.156 | 0.814 | 0.827 | 1.06 | 0.488 | 0.412
18 | NCI-H2347 | 0.972 | 0.949 | 0.957 | 0.767 | 0.902 | 0.945 | 0.786 | 0.977 | 0.611 | 0.89 | 0.698 | 0.361 | 0.268 | 0.982 | 0.902 | 0.906 | 0.888 | 0.933
19 | NCI-H2405 | 1.41 | 1.06 | 0.924 | 0.972 | 1.11 | 1.01 | 0.946 | 0.956 | 0.926 | 1.01 | 1.06 | 0.15 | 0.202 | 1.05 | 0.975 | 0.999 | 0.952 | 
20 | NCI-H3122 | 1.02 | 0.934 | 0.936 | 0.946 | 0.895 | 0.946 | 0.873 | 0.781 | 1.04 | 0.996 | 1.05 | 0.855 | 0.814 | 0.985 | 0.891 | 0.951 | 0.962 | 0.763
21 | PC-3 [JPC-3] | 0.558 | 0.417 | 0.429 | 0.463 | 1.03 | 0.948 | 0.985 | 0.948 | 0.864 | 0.767 | 0.581 | 0.245 | 0.147 | 0.408 | 0.448 | 0.446 | 0.422 | 0.459
22 | PC-14 | 0.368 | 0.319 | 0.298 | 0.307 | 1.06 | 0.892 | 0.903 | 0.684 | 0.888 | 0.963 | 0.494 | 0.0957 | 0.0938 | 0.297 | 0.339 | 0.312 | 0.304 | 0.304
23 | RERF-LC-KJ | 0.872 | 0.831 | 0.971 | 0.872 | 0.922 | 0.797 | 1 | 0.919 | 0.994 | 1.05 | 0.926 | 0.47 | 0.258 | 0.801 | 0.881 | 0.853 |  | 0.838
24 | SK-LU-1 | 1.2 | 0.803 | 0.83 | 0.683 | 0.91 | 0.657 | 0.748 | 0.526 | 0.878 | 1.19 | 0.797 | 0.195 | 0.237 | 0.833 | 0.953 | 0.859 | 0.889 | 
25 | SW 1573 | 1.16 | 1 | 1 | 0.689 | 1.01 | 0.971 | 0.737 | 0.629 | 0.986 | 0.959 | 0.546 | 0.114 | 0.0592 | 1.13 | 1.03 | 0.956 | 1.07 | 1.08
26 | UMC-11 | 1.08 | 0.928 | 0.643 | 0.365 | 0.893 | 0.959 | 0.784 | 0.484 | 0.66 | 0.887 | 0.701 | 0.533 | 0.179 |  | 0.975 | 1.02 |  | 0.668
